From the supplement of paper PMC4862054

Assays:
Assay in all cases: normalised viability (% of control), CellTiter-Blue; higher = more viable cells (about 100 = DMSO control)
Conditions in all cases: incubation time: 72 h
HCC1599 = system: HCC1599
Summary of the method: (§1)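 Plates were quality-checked by Z'-factor and normalised to vehicle (100) and a positive kill control (0). The underlying assay incubated breast cancer cell lines for 72 h on 384-well plates with compound, then added 2.5 µl CellTiter-Blue for 2 h at 37 °C and read at 560/590 nm. The value is normalised viability at a single listed concentration of the series.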

BT-549 = system: BT-549
Summary of the method: as §1

CAL-85-1 = system: CAL-85-1
Summary of the method: as §1

HCC1143 = system: HCC1143
Summary of the method: as §1

MDA-MB-436 = system: MDA-MB-436
Summary of the method: as §1

MDA-MB-231 = system: MDA-MB-231
Summary of the method: as §1

SMILES	normalised viability (HCC1599; 10 nM)	normalised viability (HCC1599; 1000 nM)	normalised viability (HCC1599; 10000 nM)	normalised viability (BT-549; 10 nM)	normalised viability (BT-549; 1000 nM)	normalised viability (BT-549; 10000 nM)	normalised viability (CAL-85-1; 3 nM)	normalised viability (CAL-85-1; 30 nM)	normalised viability (CAL-85-1; 100 nM)	normalised viability (HCC1143; 10 nM)	normalised viability (HCC1143; 1000 nM)	normalised viability (HCC1143; 10000 nM)	normalised viability (MDA-MB-436; 10 nM)	normalised viability (MDA-MB-436; 1000 nM)	normalised viability (MDA-MB-436; 10000 nM)	normalised viability (MDA-MB-231; 10 nM)	normalised viability (MDA-MB-231; 1000 nM)	normalised viability (MDA-MB-231; 10000 nM)	normalised viability (HCC1599; 1 nM)	normalised viability (HCC1599; 100 nM)	normalised viability (BT-549; 1 nM)	normalised viability (BT-549; 100 nM)	normalised viability (CAL-85-1; 0.3 nM)	normalised viability (CAL-85-1; 10 nM)	normalised viability (HCC1143; 1 nM)	normalised viability (HCC1143; 100 nM)	normalised viability (MDA-MB-436; 1 nM)	normalised viability (MDA-MB-436; 100 nM)	normalised viability (MDA-MB-231; 1 nM)	normalised viability (MDA-MB-231; 100 nM)
Cc1ccc(-n2nc(C(C)(C)C)cc2NC(=O)Nc2ccc(OCCN3CCOCC3)c3ccccc23)cc1 [Doramapimod]	93.8%	110%	91.2%	98.1%	104%	84.7%	94.4%	85.4%	80.4%	94.2%	92.1%	90.3%	84.4%	33.9%	71.5%	99.2%	99%	109%												
CN(N=O)C(=O)N[C@@H](C=O)[C@@H](O)[C@H](O)[C@H](O)CO [Streptozocin]	104%	85.9%	113%	93%	103%	83.7%	95.7%	92.1%	95.4%	87.5%	97.4%	92.5%	110%	88.1%	90.6%	101%	138%	110%												
N.N.[Cl][Pt][Cl] [Cisplatin]	100%	93.4%	86.7%	87.5%	87.6%	88.8%	96.2%	87.7%	95.7%	88.2%	89.3%	89.2%	102%	87.1%	94.8%	99.2%	101%	104%												
O=C1CCC(N2C(=O)c3ccccc3C2=O)C(=O)N1 (stereo not given) [Thalidomide]	101%	86%	102%	76.7%	91.5%	81.7%	102%	98.8%	101%	109%	102%	107%	106%	87%	96.8%	97.2%	109%	124%												
CC1(C)NC(=O)N(c2ccc([N+](=O)[O-])c(C(F)(F)F)c2)C1=O [Nilutamide]	97.9%	82.5%	113%	97.2%	85.5%	97.2%	98%	88.9%	100%	89.3%	113%	94%	113%	110%	102%	102%	92.2%	109%												
CCC1(c2ccc(N)cc2)CCC(=O)NC1=O (stereo not given) [Aminoglutethimide]	90.8%	92.7%	95.3%	84.2%	101%	76.4%	104%	89.6%	103%	124%	115%	122%	95.9%	112%	91.6%	86.9%	90.2%	106%												
CN(C)/N=N/c1[nH]cnc1C(N)=O [Dacarbazine]	93.8%	97.1%	86.7%	103%	89.2%	106%	95.8%	84.6%	90.5%	76.3%	106%	84.2%	100%	78.7%	93.8%	101%	89.3%	99%												
Cn1c(Nc2ccc(C(F)(F)F)cc2)nc2cc(Oc3ccnc(-c4ncc(C(F)(F)F)[nH]4)c3)ccc21 [RAF265]		106%			78.5%		83.3%				72.5%			83.6%			53.8%		104%	106%	87.3%	80.8%	87.4%	89.8%	90.1%	78%	120%	79.6%	110%	86.1%
Cn1c(CCCC(=O)O)nc2cc(N(CCCl)CCCl)ccc21 [Bendamustine]	115%	105%	114%	107%	101%	101%	91.2%	94.8%	100%	107%	104%	97.8%	94.7%	70.4%	116%	102%	96.1%	91%												
Oc1nc(-c2ccc(C(F)(F)F)cc2)nc2c1CSCC2 [XAV-939]	118%	95%	115%	91.3%	94.5%	101%	96%	92.8%	94.7%	80.4%	81.9%	80.9%	122%	116%	113%	89.5%	87.6%	71.4%												
